Measurements as given in PubChem BioAssay AID248 (DTP/NCI, 2004).
“And” between values parts separate entries of the source, which are not always exact repeats. Equal values may be shown once. Toxic doses and inconclusive results are not listed.

Tested on: L1210 leukemia ip in BDF1 mice, survival T/C
Assay: NCI In Vivo Anticancer Drug Screen. Data for tumor model L1210 Leukemia (intraperitoneal) in B6D2F1 (BDF1) mice
Conditions: higher = longer survival
Procedure, shortened: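 Transplantable tumor model; survival measured in treated vs vehicle control mice. Value = treated/control.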

[1] = endpoint: mean survival time, dose: 6.25 mg/kg/injection, schedule: Q01DX009 (ip), vehicle: saline
[2] = endpoint: mean survival time, dose: 12.5 mg/kg/injection, schedule: Q01DX009 (ip), vehicle: saline
[3] = endpoint: mean survival time, dose: 100.0 mg/kg/injection, schedule: Q01DX001 (ip), vehicle: saline
[4] = endpoint: mean survival time, dose: 200.0 mg/kg/injection, schedule: Q01DX001 (ip), vehicle: saline
[5] = endpoint: mean survival time, dose: 100.0 mg/kg/injection, schedule: Q01DX009 (ip), vehicle: Klucel (hydroxypropylcellulose) (HPC)
[6] = endpoint: mean survival time, dose: 200.0 mg/kg/injection, schedule: Q01DX009 (ip), vehicle: Klucel (hydroxypropylcellulose) (HPC)
[7] = endpoint: mean survival time, dose: 400.0 mg/kg/injection, schedule: Q01DX009 (ip), vehicle: Klucel (hydroxypropylcellulose) (HPC)
[8] = endpoint: mean survival time, dose: 25.0 mg/kg/injection, schedule: Q01DX009 (ip), vehicle: saline
[9] = endpoint: mean survival time, dose: 50.0 mg/kg/injection, schedule: Q01DX009 (ip), vehicle: saline
[10] = endpoint: mean survival time, dose: 100.0 mg/kg/injection, schedule: Q04DX003 (ip), vehicle: saline
[11] = endpoint: mean survival time, dose: 50.0 mg/kg/injection, schedule: Q04DX003 (ip), vehicle: saline with Tween-80
[12] = endpoint: mean survival time, dose: 200.0 mg/kg/injection, schedule: Q04DX003 (ip), vehicle: Klucel (hydroxypropylcellulose) (HPC)
[13] = endpoint: mean survival time, dose: 400.0 mg/kg/injection, schedule: Q04DX003 (ip), vehicle: Klucel (hydroxypropylcellulose) (HPC)
[14] = endpoint: mean survival time, dose: 50.0 mg/kg/injection, schedule: Q01DX009 (ip), vehicle: saline with Tween-80
[15] = endpoint: mean survival time, dose: 100.0 mg/kg/injection, schedule: Q01DX009 (ip), vehicle: saline with Tween-80

## C=CCNC(=O)NCC=C
[1]
  T/C: 114 % of control
endpoint: mean survival time, dose: 6.25 mg/kg/injection, schedule: Q01DX009 (oral), vehicle: saline
  T/C: 116 % of control
[2]
  T/C: 105 % of control and 106 % of control
endpoint: mean survival time, dose: 12.5 mg/kg/injection, schedule: Q01DX009 (oral), vehicle: saline
  T/C: 110 % of control
endpoint: mean survival time, dose: 50.0 mg/kg/injection, schedule: Q01DX009 (oral), vehicle: saline
  T/C: 176 % of control
[3]
  T/C: 111 % of control
[4]
  T/C: 114 % of control
endpoint: mean survival time, dose: 200.0 mg/kg/injection, schedule: Q01DX009 (oral), vehicle: saline
  T/C: 100 % of control
endpoint: mean survival time, dose: 300.0 mg/kg/injection, schedule: Q01DX009 (ip), vehicle: saline
  T/C: 122 % of control
endpoint: median survival time, dose: 12.5 mg/kg/injection, schedule: Q01DX009 (ip), vehicle: saline
  T/C: 122 % of control
endpoint: median survival time, dose: 12.5 mg/kg/injection, schedule: Q01DX009 (sc), vehicle: saline
  T/C: 116 % of control
endpoint: median survival time, dose: 50.0 mg/kg/injection, schedule: Q01DX009 (ip), vehicle: saline
  T/C: 112 % of control and 122 % of control
endpoint: median survival time, dose: 100.0 mg/kg/injection, schedule: Q01DX001 (ip), vehicle: saline
  T/C: 105 % of control
endpoint: median survival time, dose: 100.0 mg/kg/injection, schedule: Q01DX001 (sc), vehicle: saline
  T/C: 105 % of control
endpoint: median survival time, dose: 100.0 mg/kg/injection, schedule: Q04DX003 (ip), vehicle: saline
  T/C: 105 % of control
endpoint: median survival time, dose: 100.0 mg/kg/injection, schedule: Q04DX003 (sc), vehicle: saline
  T/C: 111 % of control
endpoint: median survival time, dose: 200.0 mg/kg/injection, schedule: Q01DX001 (ip), vehicle: saline
  T/C: 111 % of control
endpoint: median survival time, dose: 200.0 mg/kg/injection, schedule: Q01DX001 (sc), vehicle: saline
  T/C: 111 % of control
endpoint: median survival time, dose: 200.0 mg/kg/injection, schedule: Q01DX009 (ip), vehicle: saline
  T/C: 100 % of control and 122 % of control
endpoint: median survival time, dose: 200.0 mg/kg/injection, schedule: Q04DX003 (ip), vehicle: saline
  T/C: 116 % of control
endpoint: median survival time, dose: 200.0 mg/kg/injection, schedule: Q04DX003 (sc), vehicle: saline
  T/C: 116 % of control

## Cc1c(NC(=O)Nc2ccc(F)c([N+](=O)[O-])c2)c(=O)n(-c2ccccc2)n1C
[5]
  T/C: 102 % of control
[6]
  T/C: 96 % of control
[7]
  T/C: 103 % of control

## O=C(O)C(Br)C(Br)c1ccc([N+](=O)[O-])cc1 (centres undefined)
endpoint: mean survival time, dose: 100.0 mg/kg/injection, schedule: Q04DX002 (ip), vehicle: gum acacia
  T/C: 103 % of control
endpoint: mean survival time, dose: 200.0 mg/kg/injection, schedule: Q04DX002 (ip), vehicle: gum acacia
  T/C: 107 % of control
endpoint: mean survival time, dose: 400.0 mg/kg/injection, schedule: Q04DX002 (ip), vehicle: gum acacia
  T/C: 90 % of control

## CC(=O)NCC1(c2ccccc2)CCN(CCCC(=O)c2ccc(F)cc2)CC1
endpoint: mean survival time, dose: 1.56 mg/kg/injection, schedule: Q03HX024 (ip), vehicle: saline
  T/C: 94 % of control
endpoint: mean survival time, dose: 3.12 mg/kg/injection, schedule: Q03HX024 (ip), vehicle: saline
  T/C: 98 % of control
endpoint: mean survival time, dose: 4.1 mg/kg/injection, schedule: Q01DX009 (ip), vehicle: saline
  T/C: 96 % of control
[1]
  T/C: 98 % of control
endpoint: mean survival time, dose: 8.2 mg/kg/injection, schedule: Q01DX009 (ip), vehicle: saline
  T/C: 96 % of control
[2]
  T/C: 102 % of control
endpoint: mean survival time, dose: 12.5 mg/kg/injection, schedule: Q04DX003 (ip), vehicle: saline
  T/C: 100 % of control
endpoint: mean survival time, dose: 16.5 mg/kg/injection, schedule: Q01DX009 (ip), vehicle: saline
  T/C: 89 % of control
endpoint: mean survival time, dose: 18.75 mg/kg/injection, schedule: Q01DX001 (ip), vehicle: saline
  T/C: 100 % of control
[8]
  T/C: 96 % of control
endpoint: mean survival time, dose: 25.0 mg/kg/injection, schedule: Q03HX024 (ip), vehicle: saline
  T/C: 86 % of control
endpoint: mean survival time, dose: 25.0 mg/kg/injection, schedule: Q04DX003 (ip), vehicle: saline
  T/C: 100 % of control and 101 % of control (2×)
endpoint: mean survival time, dose: 33.0 mg/kg/injection, schedule: Q01DX009 (ip), vehicle: saline
  T/C: 86 % of control
endpoint: mean survival time, dose: 37.5 mg/kg/injection, schedule: Q01DX001 (ip), vehicle: saline
  T/C: 96 % of control
[9]
  T/C: 109 % of control
endpoint: mean survival time, dose: 50.0 mg/kg/injection, schedule: Q04DX003 (ip), vehicle: saline
  T/C: 101 % of control and 108 % of control and 118 % of control
endpoint: mean survival time, dose: 66.0 mg/kg/injection, schedule: Q01DX009 (ip), vehicle: saline
  T/C: 91 % of control
endpoint: mean survival time, dose: 75.0 mg/kg/injection, schedule: Q01DX001 (ip), vehicle: saline
  T/C: 96 % of control
endpoint: mean survival time, dose: 100.0 mg/kg/injection, schedule: Q01DX009 (ip), vehicle: saline
  T/C: 107 % of control
[10]
  T/C: 103 % of control
endpoint: mean survival time, dose: 150.0 mg/kg/injection, schedule: Q01DX001 (ip), vehicle: saline
  T/C: 91 % of control
endpoint: mean survival time, dose: 200.0 mg/kg/injection, schedule: Q04DX003 (ip), vehicle: saline
  T/C: 113 % of control

## CC(=O)Nc1c(Cl)c(Cl)c(Cl)c2c1-c1ccc(Cl)cc1C2
endpoint: mean survival time, dose: 100.0 mg/kg/injection, schedule: Q01DX001 (ip), vehicle: carboxymethylcellulose (CMC)
  T/C: 92 % of control
endpoint: mean survival time, dose: 200.0 mg/kg/injection, schedule: Q01DX001 (ip), vehicle: carboxymethylcellulose (CMC)
  T/C: 101 % of control
endpoint: mean survival time, dose: 400.0 mg/kg/injection, schedule: Q01DX001 (ip), vehicle: carboxymethylcellulose (CMC)
  T/C: 97 % of control

## CCOC(=O)NCC(CCN(C)CC)(c1cccc2ccccc12)C(C)C (centres undefined)
endpoint: mean survival time, dose: 12.5 mg/kg/injection, schedule: Q01DX009 (ip), vehicle: saline with Tween-80
  T/C: 93 % of control
endpoint: mean survival time, dose: 12.5 mg/kg/injection, schedule: Q04DX003 (ip), vehicle: saline with Tween-80
  T/C: 93 % of control
endpoint: mean survival time, dose: 25.0 mg/kg/injection, schedule: Q01DX009 (ip), vehicle: saline with Tween-80
  T/C: 98 % of control
endpoint: mean survival time, dose: 25.0 mg/kg/injection, schedule: Q04DX003 (ip), vehicle: saline with Tween-80
  T/C: 98 % of control
[11]
  T/C: 93 % of control

## CCOC(=O)C(=CNc1cccc(N)n1)C(=O)OCC
endpoint: mean survival time, dose: 100.0 mg/kg/injection, schedule: Q04DX003 (ip), vehicle: Klucel (hydroxypropylcellulose) (HPC)
  T/C: 95 % of control
[12]
  T/C: 97 % of control
[13]
  T/C: 92 % of control

## Cc1ccc(Cl)cc1NC(=O)c1ccc([N+](=O)[O-])cc1
[14]
  T/C: 91 % of control
[15]
  T/C: 86 % of control

## Cc1cccc(NC(=O)c2c(Br)c(Br)c(Br)c(Br)c2C(=O)O)c1C
[5]
  T/C: 100 % of control
[6]
  T/C: 103 % of control

## CCCCOc1cc(C(=O)O)ccc1[N+](=O)[O-]
[14]
  T/C: 97 % of control
[11]
  T/C: 96 % of control
[15]
  T/C: 98 % of control
endpoint: mean survival time, dose: 100.0 mg/kg/injection, schedule: Q04DX003 (ip), vehicle: saline with Tween-80
  T/C: 91 % of control
endpoint: mean survival time, dose: 200.0 mg/kg/injection, schedule: Q04DX003 (ip), vehicle: saline with Tween-80
  T/C: 102 % of control

## Cc1ccc(NC(=S)NC(Cc2ccccc2)c2ccccc2)cc1 (centres undefined)
[5]
  T/C: 97 % of control
[6]
  T/C: 94 % of control
[12]
  T/C: 93 % of control
[7]
  T/C: 96 % of control
[13]
  T/C: 102 % of control

## CCCCCCCCCCCC(=O)NC(CCC(=O)O)C(=O)O (centres undefined)
[3]
  T/C: 111 % of control
[4]
  T/C: 103 % of control
endpoint: mean survival time, dose: 400.0 mg/kg/injection, schedule: Q01DX001 (ip), vehicle: saline
  T/C: 105 % of control

## Cc1c(C2=CC(=O)c3ccccc3C2=O)[nH]c2ccccc12
endpoint: mean survival time, dose: 50.0 mg/kg/injection, schedule: Q01DX001 (ip), vehicle: other
  T/C: 93 % of control
endpoint: mean survival time, dose: 100.0 mg/kg/injection, schedule: Q01DX001 (ip), vehicle: other
  T/C: 91 % of control
endpoint: mean survival time, dose: 200.0 mg/kg/injection, schedule: Q01DX001 (ip), vehicle: other
  T/C: 102 % of control
endpoint: mean survival time, dose: 400.0 mg/kg/injection, schedule: Q01DX001 (ip), vehicle: other
  T/C: 106 % of control

## Nc1nc(N)nc(-c2ccccc2)n1
[14]
  T/C: 94 % of control
[5]
  T/C: 111 % of control
[15]
  T/C: 94 % of control
endpoint: mean survival time, dose: 100.0 mg/kg/injection, schedule: Q04DX002 (ip), vehicle: Klucel (hydroxypropylcellulose) (HPC)
  T/C: 114 % of control
[6]
  T/C: 111 % of control
endpoint: mean survival time, dose: 200.0 mg/kg/injection, schedule: Q01DX009 (ip), vehicle: saline with Tween-80
  T/C: 97 % of control
endpoint: mean survival time, dose: 200.0 mg/kg/injection, schedule: Q04DX002 (ip), vehicle: Klucel (hydroxypropylcellulose) (HPC)
  T/C: 107 % of control
[7]
  T/C: 93 % of control
endpoint: mean survival time, dose: 400.0 mg/kg/injection, schedule: Q04DX002 (ip), vehicle: Klucel (hydroxypropylcellulose) (HPC)
  T/C: 88 % of control

## COc1cc2ccc3ccncc3c2cc1OC
[2]
  T/C: 104 % of control
[8]
  T/C: 106 % of control and 115 % of control
[9]
  T/C: 97 % of control and 111 % of control
[10]
  T/C: 86 % of control
